Assay results: paper PMC6979384, “Characterization of the plant homeodomain (PHD) reader family for their histone tail interactions” (Epigenetics & Chromatin, 2020)

How the values were obtained:
Assay in all cases: Histone peptide microarray
Type in all cases: binding, human
Conditions in all cases: sheet "Array Heatmap"
PHF2 = tested on: PHF2
How it was run: (§1)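 Recombinant GST-PHD protein at 0.5 μM; 293-member modified histone peptide array; signals averaged from four repeats ± SD.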

CHD4 (PPCC) = tested on: CHD4 (PPCC)
How it was run: as §1

PHF23 = tested on: PHF23
How it was run: as §1

KDM4C (TTP) = tested on: KDM4C (TTP)
How it was run: as §1

ING5 = tested on: ING5
How it was run: as §1

KDM5A (3) = tested on: KDM5A (3)
How it was run: as §1

KDM5B (3) = tested on: KDM5B (3)
How it was run: as §1

CHD5 (PCC) = tested on: CHD5 (PCC)
How it was run: as §1

SP140L = tested on: SP140L
How it was run: as §1

PHF8 = tested on: PHF8
How it was run: as §1

PHF13 = tested on: PHF13
How it was run: as §1

ING4 = tested on: ING4
How it was run: as §1

KDM5A (1) = tested on: KDM5A (1)
How it was run: as §1

PHF21A = tested on: PHF21A
How it was run: as §1

ING3 = tested on: ING3
How it was run: as §1

DIDO1 = tested on: DIDO1
How it was run: as §1

KDM7A = tested on: KDM7A
How it was run: as §1

ING2 = tested on: ING2
How it was run: as §1

ING1 = tested on: ING1
How it was run: as §1

DPF2 (PPC2W2) = tested on: DPF2 (PPC2W2)
How it was run: as §1

MORC3 (CW) = tested on: MORC3 (CW)
How it was run: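 GST-tagged PHD readers, 0.5 μM, probed on a microarray of 293 synthetic histone peptides carrying single or combinatorial PTMs (optimized Petell protocol). Signals are averaged over 4 replicates and expressed as relative binding.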

BPTF (PB) = tested on: BPTF (PB)
How it was run: as §1

KDM5B (1) = tested on: KDM5B (1)
How it was run: as §1

CHD5 (PPCC) = tested on: CHD5 (PPCC)
How it was run: as §1

MLL5 = tested on: MLL5
How it was run: as §1

PHRF1 (RP) = tested on: PHRF1 (RP)
How it was run: as §1

TAF3 = tested on: TAF3
How it was run: as §1

TRIM66 (PB) = tested on: TRIM66 (PB)
How it was run: as §1

RAG2 = tested on: RAG2
How it was run: as §1

AIRE (PP) = tested on: AIRE (PP)
How it was run: as §1

BAZ2B = tested on: BAZ2B
How it was run: as §1

[1] = GST-tagged PHF2, arrays performed twice, total replicate number n = 4
[2] = GST-tagged CHD4 (PPCC), arrays performed twice, total replicate number n = 4
[3] = GST-tagged PHF23, arrays performed twice, total replicate number n = 4
[4] = GST-tagged KDM4C (TTP), arrays performed twice, total replicate number n = 4
[5] = GST-tagged ING5, arrays performed twice, total replicate number n = 4
[6] = GST-tagged KDM5A (3), arrays performed twice, total replicate number n = 4
[7] = GST-tagged KDM5B (3), arrays performed twice, total replicate number n = 4
[8] = GST-tagged CHD5 (PCC), arrays performed twice, total replicate number n = 4
[9] = GST-tagged SP140L, arrays performed twice, total replicate number n = 4
[10] = GST-tagged PHF8, arrays performed twice, total replicate number n = 4
[11] = GST-tagged PHF13, arrays performed twice, total replicate number n = 4
[12] = GST-tagged ING4, arrays performed twice, total replicate number n = 4
[13] = GST-tagged KDM5A (1), arrays performed twice, total replicate number n = 4
[14] = GST-tagged PHF21A, arrays performed twice, total replicate number n = 4
[15] = GST-tagged ING3, arrays performed twice, total replicate number n = 4
[16] = GST-tagged DIDO1, arrays performed twice, total replicate number n = 4
[17] = GST-tagged KDM7A, arrays performed twice, total replicate number n = 4
[18] = GST-tagged ING2, arrays performed twice, total replicate number n = 4
[19] = GST-tagged ING1, arrays performed twice, total replicate number n = 4
[20] = GST-tagged DPF2 (PPC2W2), arrays performed twice, total replicate number n = 4
[21] = GST-tagged MORC3 (CW), arrays performed twice, total replicate number n = 4
[22] = GST-tagged BPTF (PB), arrays performed twice, total replicate number n = 4
[23] = GST-tagged KDM5B (1), arrays performed twice, total replicate number n = 4
[24] = GST-tagged CHD5 (PPCC), arrays performed twice, total replicate number n = 4
[25] = GST-tagged MLL5, arrays performed twice, total replicate number n = 4
[26] = GST-tagged PHRF1 (RP), arrays performed twice, total replicate number n = 4
[27] = GST-tagged TAF3, arrays performed twice, total replicate number n = 4
[28] = GST-tagged TRIM66 (PB), arrays performed twice, total replicate number n = 4
[29] = GST-tagged RAG2, arrays performed twice, total replicate number n = 4
[30] = GST-tagged AIRE (PP), arrays performed twice, total replicate number n = 4
[31] = GST-tagged BAZ2B, arrays performed twice, total replicate number n = 4
[32] = GST-tagged reader, histone peptide array, total n = 4

H3 (52-61): H3 52-61 (RRYQKSTELL; UniProt P68431 53-62, looked up, fragment)
Array Heatmap signal, PHF2 (PHF2; [1]): 0.6756 | Array Heatmap signal, CHD4 (PPCC) (CHD4 (PPCC); [2]): 0.678 | Array Heatmap signal, PHF23 (PHF23; [3]): 0.6261 | Array Heatmap signal, KDM4C (TTP) (KDM4C (TTP); [4]): 0.5685 | Array Heatmap signal, ING5 (ING5; [5]): 0.4351 | Array Heatmap signal, KDM5A (3) (KDM5A (3); [6]): 0.5465 | Array Heatmap signal, KDM5B (3) (KDM5B (3); [7]): 0.517 | Array Heatmap signal, CHD5 (PCC) (CHD5 (PCC); [8]): 0.8381 | Array Heatmap signal, SP140L (SP140L; [9]): 0.4012 | Array Heatmap signal, PHF8 (PHF8; [10]): 0.404 | Array Heatmap signal, PHF13 (PHF13; [11]): 0.7152 | Array Heatmap signal, ING4 (ING4; [12]): 0.5513 | Array Heatmap signal, KDM5A (1) (KDM5A (1); [13]): 0.5239 | Array Heatmap signal, PHF21A (PHF21A; [14]): 0.5243 | Array Heatmap signal, ING3 (ING3; [15]): 0.5651 | Array Heatmap signal, DIDO1 (DIDO1; [16]): 0.9 | Array Heatmap signal, KDM7A (KDM7A; [17]): 0.4034 | Array Heatmap signal, ING2 (ING2; [18]): 0.6326 | Array Heatmap signal, ING1 (ING1; [19]): 0.6486 | Array Heatmap signal, DPF2 (PPC2W2) (DPF2 (PPC2W2); [20]): 0.817 | Array Heatmap signal, MORC3 (CW) (MORC3 (CW); [21]): 0.4348 | Array Heatmap signal, BPTF (PB) (BPTF (PB); [22]): 0.412 | Array Heatmap signal, KDM5B (1) (KDM5B (1); [23]): 0.6945 | Array Heatmap signal, CHD5 (PPCC) (CHD5 (PPCC); [24]): 0.6595 | Array Heatmap signal, MLL5 (MLL5; [25]): 0.6079 | Array Heatmap signal, PHRF1 (RP) (PHRF1 (RP); [26]): 0.5632 | Array Heatmap signal, TAF3 (TAF3; [27]): 0.3129 | Array Heatmap signal, TRIM66 (PB) (TRIM66 (PB); [28]): 0.6688 | Array Heatmap signal, RAG2 (RAG2; [29]): 0.2955 | Array Heatmap signal, AIRE (PP) (AIRE (PP); [30]): 0.514 | Array Heatmap signal, BAZ2B (BAZ2B; [31]): 0.5444

H3K4me3 + K9me3: H3 1-20
Array Heatmap signal, PHF2 (PHF2; [32]): 0.6501 | Array Heatmap signal, CHD4 (PPCC) (CHD4 (PPCC); [32]): 0.5681 | Array Heatmap signal, PHF23 (PHF23; [32]): 0.5934 | Array Heatmap signal, KDM4C (TTP) (KDM4C (TTP); [32]): 0.5629 | Array Heatmap signal, ING5 (ING5; [32]): 0.4091 | Array Heatmap signal, KDM5A (3) (KDM5A (3); [32]): 0.6222 | Array Heatmap signal, KDM5B (3) (KDM5B (3); [32]): 0.5506 | Array Heatmap signal, CHD5 (PCC) (CHD5 (PCC); [32]): 0.7845 | Array Heatmap signal, SP140L (SP140L; [32]): 0.3795 | Array Heatmap signal, PHF8 (PHF8; [32]): 0.4712 | Array Heatmap signal, PHF13 (PHF13; [32]): 0.6561 | Array Heatmap signal, ING4 (ING4; [32]): 0.4847 | Array Heatmap signal, KDM5A (1) (KDM5A (1); [32]): 0.4868 | Array Heatmap signal, PHF21A (PHF21A; [32]): 0.4927 | Array Heatmap signal, ING3 (ING3; [32]): 0.5385 | Array Heatmap signal, DIDO1 (DIDO1; [32]): 0.7556 | Array Heatmap signal, KDM7A (KDM7A; [32]): 0.4063 | Array Heatmap signal, ING2 (ING2; [32]): 0.7112 | Array Heatmap signal, ING1 (ING1; [32]): 0.6677 | Array Heatmap signal, DPF2 (PPC2W2) (DPF2 (PPC2W2); [32]): 0.7108 | Array Heatmap signal, MORC3 (CW) (MORC3 (CW); [32]): 0.5189 | Array Heatmap signal, BPTF (PB) (BPTF (PB); [32]): 0.3806 | Array Heatmap signal, KDM5B (1) (KDM5B (1); [32]): 0.6368 | Array Heatmap signal, CHD5 (PPCC) (CHD5 (PPCC); [32]): 0.5893 | Array Heatmap signal, MLL5 (MLL5; [32]): 0.6708 | Array Heatmap signal, PHRF1 (RP) (PHRF1 (RP); [32]): 0.5034 | Array Heatmap signal, TAF3 (TAF3; [32]): 0.3501 | Array Heatmap signal, TRIM66 (PB) (TRIM66 (PB); [32]): 0.5701 | Array Heatmap signal, RAG2 (RAG2; [32]): 0.359 | Array Heatmap signal, AIRE (PP) (AIRE (PP); [32]): 0.4775 | Array Heatmap signal, BAZ2B (BAZ2B; [32]): 0.4905

H3 (1-20) N-ac: H3 1-20
Array Heatmap signal, PHF2 (PHF2; [1]): 0.4904 | Array Heatmap signal, CHD4 (PPCC) (CHD4 (PPCC); [2]): 0.5805 | Array Heatmap signal, PHF23 (PHF23; [3]): 0.532 | Array Heatmap signal, KDM4C (TTP) (KDM4C (TTP); [4]): 0.4656 | Array Heatmap signal, ING5 (ING5; [5]): 0.3522 | Array Heatmap signal, KDM5A (3) (KDM5A (3); [6]): 0.5353 | Array Heatmap signal, KDM5B (3) (KDM5B (3); [7]): 0.5329 | Array Heatmap signal, CHD5 (PCC) (CHD5 (PCC); [8]): 0.8196 | Array Heatmap signal, SP140L (SP140L; [9]): 0.3813 | Array Heatmap signal, PHF8 (PHF8; [10]): 0.365 | Array Heatmap signal, PHF13 (PHF13; [11]): 0.6234 | Array Heatmap signal, ING4 (ING4; [12]): 0.4519 | Array Heatmap signal, KDM5A (1) (KDM5A (1); [13]): 0.4705 | Array Heatmap signal, PHF21A (PHF21A; [14]): 0.4724 | Array Heatmap signal, ING3 (ING3; [15]): 0.4681 | Array Heatmap signal, DIDO1 (DIDO1; [16]): 0.6386 | Array Heatmap signal, KDM7A (KDM7A; [17]): 0.3283 | Array Heatmap signal, ING2 (ING2; [18]): 0.6126 | Array Heatmap signal, ING1 (ING1; [19]): 0.5284 | Array Heatmap signal, DPF2 (PPC2W2) (DPF2 (PPC2W2); [20]): 0.6951 | Array Heatmap signal, MORC3 (CW) (MORC3 (CW); [21]): 0.4955 | Array Heatmap signal, BPTF (PB) (BPTF (PB); [22]): 0.3531 | Array Heatmap signal, KDM5B (1) (KDM5B (1); [23]): 0.6502 | Array Heatmap signal, CHD5 (PPCC) (CHD5 (PPCC); [24]): 0.5483 | Array Heatmap signal, MLL5 (MLL5; [25]): 0.5714 | Array Heatmap signal, PHRF1 (RP) (PHRF1 (RP); [26]): 0.6182 | Array Heatmap signal, TAF3 (TAF3; [27]): 0.3122 | Array Heatmap signal, TRIM66 (PB) (TRIM66 (PB); [28]): 0.7386 | Array Heatmap signal, RAG2 (RAG2; [29]): 0.259 | Array Heatmap signal, AIRE (PP) (AIRE (PP); [30]): 0.5035 | Array Heatmap signal, BAZ2B (BAZ2B; [31]): 0.4663
